Reference: patent US20150150253A1, “CROP ENHANCEMENT COMPOSITIONS” (Syngenta Participations AG, priority 2012, published 2015)
“And” between values parts separate entries of the source, which are not always exact repeats. Equal values may be shown once. Read-outs that look alike come from different tables or passages of the source.

Legend:
[1] = test system: Gaeumannomyces graminis; assay: Gaeumannomyces graminis / liquid culture (take-all of cereals), well plate mixture test; format: cell-based
[2] = test system: Pythium ultimum; assay: Pythium ultimum / liquid culture (seedling damping off), well plate mixture test; format: cell-based
[3] = test system: Fusarium culmorum; assay: microbe, parasite or virus in culture; format: cell-based; conditions: read-out: % efficacy observed
[4] = test system: Ustilago nuda; assay: Ustilago nuda / liquid culture (barley loose smut), well plate mixture test; format: cell-based
[5] = test system: Monographella nivalis (Microdochium nivale); assay: Monographella nivalis (Microdochium nivale) / liquid culture (foot rot cereals), well plate mixture test; format: cell-based
[6] = test system: Thanatephorus cucumeris (Rhizoctonia solani)
Description: A synergistic effect exists whenever the action of an active ingredient combination is greater than the sum of the actions of the individual components.
ppm=milligrams of active ingredient (=a.i.) per liter of spray mixture X=% action by active ingredient A) using p ppm of active ingredient Y=% action by active ingredient B) using q ppm of active ingredient. According to COLBY, the expected (additive) action of active ingredients A)+B) using p+q ppm of active ingredient is
If the action actually observed (O) is greater than the expected action (E), then the action of the combination is super-additive, i.e. there is a synergistic effect. In mathematical terms, synergism corresponds to a positive value for the difference of (O-E). In the case of purely complementary addition of activities (expected activity), said difference (O-E) is zero. A negative value of said difference (O-E) signals a loss of activity compared to the expected activity.
Method Description Liquid Culture Tests in Well Plates for Mixtures
Thanatephorus cucumeris (Rhizoctonia solani)/Liquid Culture (Foot Rot, Damping-Off)
Mycelia fragments of a newly grown liquid culture of the fungus are directly mixed into nutrient broth (PDB potato dextrose broth). After placing a (DMSO) solution of the test compounds into a microtiter plate (96-well format), the nutrient broth containing the fungal material is added. The test plates are incubated at 24° C. and the inhibition of growth is determined photometrically 3-4 days after application and percent antifungal activity relative to the untreated check is calculated.

[7] = Thanatephorus cucumeris, read-out: % efficacy observed

CO/C=C(/C(=O)OC)c1ccccc1Oc1cc(Oc2ccccc2C#N)ncn1 [Azoxystrobin, azoxystrobin]
% efficacy observed ([1]; Azoxystrobin 0.0008 mg ai/l): 40.7%
% efficacy observed ([1]; Azoxystrobin 0.0016 mg ai/l): 67.0%
% efficacy observed ([1]; Azoxystrobin 0.0031 mg ai/l): 74.8%
% efficacy observed ([2]; Azoxystrobin 0.0250 mg ai/l): 14.0%
% efficacy observed ([2]; Azoxystrobin 0.0500 mg ai/l): 35.6%
% efficacy observed ([2]; Azoxystrobin 0.1000 mg ai/l): 45.3%

COc1ccc(CC(=O)N(O)Cc2ccc(F)cc2)cc1 [Compound D4]
Emax at 10 µg/mL [3]: 0%
Emax at 20 µg/mL [3]: 0%
% efficacy observed ([4]; D4 0.0391 mg ai/l): 8.7%
% efficacy observed ([4]; D4 0.0781 mg ai/l): 2.5% and 0.2%
% efficacy observed ([4]; D4 0.1563 mg ai/l): 3.7%
Emax at 0.3125 µg/mL ([4]; Ustilago nuda, D4 0.3125 mg ai/l, read-out: % efficacy observed): 0%
Emax at 0.625 µg/mL ([4]; Ustilago nuda, D4 0.6250 mg ai/l, read-out: % efficacy observed): 0%
Emax at 1.25 µg/mL ([4]; Ustilago nuda, D4 1.2500 mg ai/l, read-out: % efficacy observed): 0%
Emax at 2.5 µg/mL ([4]; Ustilago nuda, D4 2.5000 mg ai/l, read-out: % efficacy observed): 7%
Emax at 20 µg/mL ([4]; Ustilago nuda, D4 20.0000 mg ai/l, read-out: % efficacy observed): 1.3%
% efficacy observed ([1]; D4 0.000000 mg ai/l): 5.3%
Emax at 0.0781 µg/mL ([1]; Gaeumannomyces graminis, D4 0.0781 mg ai/l, read-out: % efficacy observed): 0%
Emax at 0.1563 µg/mL ([1]; Gaeumannomyces graminis, D4 0.1563 mg ai/l, read-out: % efficacy observed): 0%
Emax at 0.3125 µg/mL ([1]; Gaeumannomyces graminis, D4 0.3125 mg ai/l, read-out: % efficacy observed): 0%
Emax at 0.625 µg/mL ([1]; Gaeumannomyces graminis, D4 0.6250 mg ai/l, read-out: % efficacy observed): 0%
Emax at 1.25 µg/mL ([1]; Gaeumannomyces graminis, D4 1.2500 mg ai/l, read-out: % efficacy observed): 0%
Emax at 2.5 µg/mL ([1]; Gaeumannomyces graminis, D4 2.5000 mg ai/l, read-out: % efficacy observed): 0%
Emax at 5 µg/mL ([1]; Gaeumannomyces graminis, D4 5.0000 mg ai/l, read-out: % efficacy observed): 0%
Emax at 10 µg/mL ([1]; Gaeumannomyces graminis, D4 10.0000 mg ai/l, read-out: % efficacy observed): 0%
Emax at 20 µg/mL ([1]; Gaeumannomyces graminis, D4 20.0000 mg ai/l, read-out: % efficacy observed): 0%
Emax at 0.1563 µg/mL ([5]; Monographella nivalis, D4 0.1563 mg ai/l, read-out: % efficacy observed): 6.7%
Emax at 0.3125 µg/mL ([5]; Monographella nivalis, D4 0.3125 mg ai/l, read-out: % efficacy observed): 10.2%
Emax at 0.625 µg/mL ([5]; Monographella nivalis, D4 0.6250 mg ai/l, read-out: % efficacy observed): 0%
Emax at 2.5 µg/mL ([5]; Monographella nivalis, D4 2.5000 mg ai/l, read-out: % efficacy observed): 2.8%
Emax at 5 µg/mL ([5]; Monographella nivalis, D4 5.0000 mg ai/l, read-out: % efficacy observed): 2.1%
Emax at 10 µg/mL ([5]; Monographella nivalis, D4 10.0000 mg ai/l, read-out: % efficacy observed): 6.4%
Emax at 20 µg/mL ([5]; Monographella nivalis, D4 20.0000 mg ai/l, read-out: % efficacy observed): 1.4%
Emax at 0.0391 µg/mL ([2]; Globisporangium ultimum, D4 0.0391 mg ai/l, read-out: % efficacy observed): 0%
Emax at 0.1563 µg/mL ([2]; Globisporangium ultimum, D4 0.1563 mg ai/l, read-out: % efficacy observed): 0%
Emax at 0.3125 µg/mL ([2]; Globisporangium ultimum, D4 0.3125 mg ai/l, read-out: % efficacy observed): 0%
Emax at 0.625 µg/mL ([2]; Globisporangium ultimum, D4 0.6250 mg ai/l, read-out: % efficacy observed): 0%
Emax at 1.25 µg/mL ([2]; Globisporangium ultimum, D4 1.2500 mg ai/l, read-out: % efficacy observed): 0%
Emax at 2.5 µg/mL ([2]; Globisporangium ultimum, D4 2.5000 mg ai/l, read-out: % efficacy observed): 0%
% efficacy observed ([6]; D4 0.6250 mg ai/l): 2.1% and 4.6%
Emax at 0.0781 µg/mL ([6]; Thanatephorus cucumeris, read-out: % efficacy observed, D4 0.0781 mg ai/l): 0%
Emax at 0.1563 µg/mL ([6]; Thanatephorus cucumeris, read-out: % efficacy observed, D4 0.1563 mg ai/l): 0%
Emax at 20 µg/mL ([6]; Thanatephorus cucumeris, read-out: % efficacy observed, D4 20.0000 mg ai/l): 0%

CC1COC(Cn2cncn2)(c2ccc(Oc3ccc(Cl)cc3)cc2Cl)O1 (stereo not shown) [Difenconazole]
Emax at 0.5 µg/mL ([4]; Ustilago nuda, Difenconazole 0.5000 mg ai/l, read-out: % efficacy observed): 30%
Emax at 1 µg/mL ([4]; Ustilago nuda, Difenconazole 1.0000 mg ai/l, read-out: % efficacy observed): 45.9%
Emax at 2 µg/mL ([4]; Ustilago nuda, Difenconazole 2.0000 mg ai/l, read-out: % efficacy observed): 60.5%
Emax at 0.5 µg/mL ([1]; Gaeumannomyces graminis, Difenconazole 0.5000 mg ai/l, read-out: % efficacy observed): 0%
Emax at 1 µg/mL ([1]; Gaeumannomyces graminis, Difenconazole 1.0000 mg ai/l, read-out: % efficacy observed): 10.6%
Emax at 2 µg/mL ([1]; Gaeumannomyces graminis, Difenconazole 2.0000 mg ai/l, read-out: % efficacy observed): 39%
Emax at 0.5 µg/mL ([6]; Thanatephorus cucumeris, read-out: % efficacy observed, Difenconazole 0.5000 mg ai/l): 0%
Emax at 1 µg/mL ([6]; Thanatephorus cucumeris, read-out: % efficacy observed, Difenconazole 1.0000 mg ai/l): 0%

N#Cc1c[nH]cc1-c1cccc2c1OC(F)(F)O2 [Fludioxonyl]
Emax at 0.0313 µg/mL ([4]; Ustilago nuda, read-out: % efficacy observed): 33.1%
Emax at 0.125 µg/mL [6, 7]: 13.8%
Emax at 0.25 µg/mL [6, 7]: 66.5%
Emax at 0.5 µg/mL [6, 7]: 60.5%
Emax at 1 µg/mL [6, 7]: 86.8%

Cn1cc(C(=O)Nc2ccccc2-c2cc(F)c(F)c(F)c2)c(C(F)F)n1 [Fluxapyroxad, fluxapyroxad]
% efficacy observed ([5]; Fluxapyroxad 0.1875 mg ai/l): 22.2%
% efficacy observed ([5]; Fluxapyroxad 0.3750 mg ai/l): 55.5%
% efficacy observed ([5]; Fluxapyroxad 0.7500 mg ai/l): 65.4%
% efficacy observed ([6]; Fluxapyroxad 0.1875 mg ai/l): 29.7%
% efficacy observed ([6]; Fluxapyroxad 0.3750 mg ai/l): 61.8%
% efficacy observed ([6]; Fluxapyroxad 0.7500 mg ai/l): 71.9%
% efficacy observed ([6]; Fluxapyroxad 1.5000 mg ai/l): 67.9%

COCC(=O)N(c1c(C)cccc1C)[C@H](C)C(=O)OC [Mefenoxam, mefenoxam]
% efficacy observed ([2]; Mefenoxam 0.0078 mg ai/l): 34.1%
% efficacy observed ([2]; Mefenoxam 0.0156 mg ai/l): 37.8%
% efficacy observed ([2]; Mefenoxam 0.0313 mg ai/l): 70.2%
% efficacy observed ([2]; Mefenoxam 0.0625 mg ai/l): 71.3%
% efficacy observed ([2]; Mefenoxam 0.1250 mg ai/l): 84.4%

Cc1nn(C)c(F)c1C(=O)Nc1ccccc1C(C)CC(C)C (stereo not shown) [Penflufen, penflufen]
% efficacy observed ([4]; Penflufen 0.0039 mg ai/l): 23.1%
% efficacy observed ([5]; Penflufen 1.0000 mg ai/l): 19.4%
% efficacy observed ([5]; Penflufen 2.0000 mg ai/l): 56.8%
% efficacy observed ([6]; Penflufen 0.0156 mg ai/l): 20.8%
% efficacy observed ([6]; Penflufen 0.0313 mg ai/l): 7.5%
% efficacy observed ([6]; Penflufen 0.0625 mg ai/l): 42.0%
% efficacy observed ([6]; Penflufen 0.1250 mg ai/l): 64.3%
% efficacy observed ([6]; Penflufen 0.2500 mg ai/l): 83.3%

Cn1cc(C(=O)Nc2ccccc2C2CC2C2CC2)c(C(F)F)n1 (stereo not shown) [Sedaxane, sedaxane]
% efficacy observed ([4]; Sedaxane 0.0117 mg ai/l): 55.0%
% efficacy observed ([1]; Sedaxane 1.5000 mg ai/l): 46.7%
% efficacy observed ([6]; Sedaxane 0.0469 mg ai/l): 0.0%
% efficacy observed ([6]; Sedaxane 0.0938 mg ai/l): 41.1%
% efficacy observed ([6]; Sedaxane 0.1875 mg ai/l): 71.1%
% efficacy observed ([6]; Sedaxane 0.3750 mg ai/l): 72.2%
% efficacy observed ([6]; Sedaxane 0.7500 mg ai/l): 72.2%

CC(C)(C)C(O)(CCc1ccc(Cl)cc1)Cn1cncn1 (stereo not shown) [Tebuconazole, tebuconazole]
Emax at 0.25 µg/mL ([1]; Gaeumannomyces graminis, Tebuconazole 0.2500 mg ai/l, read-out: % efficacy observed): 43.5%
Emax at 0.5 µg/mL ([1]; Gaeumannomyces graminis, Tebuconazole 0.5000 mg ai/l, read-out: % efficacy observed): 47.5%
Emax at 1 µg/mL ([1]; Gaeumannomyces graminis, Tebuconazole 1.0000 mg ai/l, read-out: % efficacy observed): 61%
Emax at 2 µg/mL ([1]; Gaeumannomyces graminis, Tebuconazole 2.0000 mg ai/l, read-out: % efficacy observed): 74%
Emax at 1 µg/mL ([6]; Thanatephorus cucumeris, read-out: % efficacy observed, Tebuconazole 1.0000 mg ai/l): 0%
Emax at 2 µg/mL ([6]; Thanatephorus cucumeris, read-out: % efficacy observed, Tebuconazole 2.0000 mg ai/l): 0%

c1ccc2[nH]c(-c3cscn3)nc2c1 [Thiabendazole, thiabendazole]
Emax at 3 µg/mL [3]: 45.3%
Emax at 6 µg/mL [3]: 71.7%
